Measurements published in patent US20100190794A1, “Herbicidally Active Composition” (BASF SE, priority 2007, published 2010).

What was measured:
PHACA = test: greenhouse test, pre-emergence treatment; assay type: in vivo, Phalaris canariensis
Source text: (§1) The culture containers used were plastic pots containing loamy sand with approximately 3.0% of humus as substrate. The seeds of the test plants were sown separately for each species.
(§2) For the pre-emergence treatment, the active compounds, suspended or emulsified in water, were applied directly after sowing by means of finely distributing nozzles. The containers were irrigated gently to promote germination and growth and subsequently covered with transparent plastic hoods until the plants had rooted. This cover caused uniform germination of the test plants unless this was adversely affected by the active compounds.
(§3) Depending on the species, the plants were kept at 10-25° C. and 20-35° C., respectively. The test period extended over 2 to 4 weeks. During this time, the plants were tended and their response to the individual treatments was evaluated.
(§4) Evaluation was carried out using a scale from 0 to 100. 100 means no emergence of the plants, or complete destruction of at least the above-ground parts, and 0 means no damage or normal course of growth. Good herbicidal activity is given at values of at least 70, and very good herbicidal activity is given at values of at least 85.
(§5) The respective stated components A and B, and if appropriate, C were formulated as a 5% by weight or 10% by weight strength emulsion concentrate or a commercially available formulation of component B was used and, with addition of the amount of solvent system, introduced into the spray liquor used for applying the active compound. In the examples, the solvent used was water.
(§6) The test period extended over 20 or 21 days. During this time, the plants were tended, and their reactions to the treatment with active compound was monitored.
(§7) What was evaluated was the damage by the chemical compositions using a scale of from 0 to 100%, in comparison to the untreated control plants. 0 means no damage, and 100 means complete destruction of the plants.
(§8) In the examples below, using the method of S. R. Colby (1967) “Calculating synergistic and antagonistic responses of herbicide combinations”, Weeds 15, p. 22 ff., the value E, which is expected if the activity of the individual active compounds is only additive, was calculated.
(§9) where X=percent activity using active compound A at an application rate a; Y=percent activity using active compound B at an application rate b; E=expected activity (in %) by A+B at application rates a+b.
(§10) If the value found in experiments is higher than the value E calculated according to Colby, a synergistic effect is present.

ALOMY [1] = test: greenhouse test, pre-emergence treatment; assay type: in vivo, Alopecurus myosuroides
Source text: as §1, §2, §3, §4, §5, §6, §7, §8, §9, §10

BRAPL = test: greenhouse test, pre-emergence treatment; assay type: in vivo, Brachiaria plantaginea
Source text: as §1, §2, §3, §4, §5, §6, §7, §8, §9, §10

DIGSA = test: greenhouse test, pre-emergence treatment; assay type: in vivo, Digitaria sanguinalis
Source text: as §1, §2, §3, §4, §5, §6, §7, §8, §9, §10

LOLMU [2] = test: greenhouse test, pre-emergence treatment; assay type: in vivo, Lolium multiflorum
Source text: as §1, §2, §3, §4, §5, §6, §7, §8, §9, §10

ECHCG = test: greenhouse test, pre-emergence treatment; assay type: in vivo, Echinochloa crus-galli; conditions: 1000 g/ha a.s., Use Example 2
Source text: as §1, §2, §3, §4, §5, §6, §7, §8, §9, §10

MATIN = test: greenhouse test, pre-emergence treatment; assay type: in vivo, Matricaria inodora; conditions: 1000 g/ha a.s., Use Example 2
Source text: as §1, §2, §3, §4, §5, §6, §7, §8, §9, §10

STEME = test: greenhouse test, pre-emergence treatment; assay type: in vivo, Stellaria media; conditions: 1000 g/ha a.s., Use Example 2
Source text: as §1, §2, §3, §4, §5, §6, §7, §8, §9, §10

ALOMY [3] = test: greenhouse test, post-emergence treatment; assay type: in vivo, Alopecurus myosuroides; conditions: Use Example 17
Description: as §1
(§11) For the post-emergence treatment, the test plants were grown to a plant height of from 3 to 15 cm, depending on the plant habit, and only then treated with the active compounds which had been suspended or emulsified in water. To this end, the test plants were either sown directly and grown in the same containers, or they were first grown separately as seedlings and transplanted into the test containers a few days prior to treatment.
as §3, §4, §5, §6, §7, §8, §9, §10

LOLMU [4] = test: greenhouse test, post-emergence treatment; assay type: in vivo, Lolium multiflorum; conditions: Use Example 17
Description: as §1, §11, §3, §4, §5, §6, §7, §8, §9, §10

SETVI = test: greenhouse test, post-emergence treatment; assay type: in vivo, Setaria viridis; conditions: Use Example 17
Description: as §1, §11, §3, §4, §5, §6, §7, §8, §9, §10

PANDI = test: greenhouse test, pre-emergence treatment; assay type: in vivo, Panicum dichotomiflorum; conditions: Use Example 3
Source text: as §1, §2, §3
as §4, with “85. […]” for “85.”
as §6
What was evaluated was the damage by the chemical compositions using a scale of from 0 to 100%, in comparison to the untreated control plants. […]
In the examples below, using the method of S. R. Colby (1967) “Calculating synergistic and antagonistic responses of herbicide combinations”, Weeds 15, p. 22 ff., the value E, which is expected if the activity of the individual active compounds is only additive, was calculated. […]
as §10

CCHEC = test: greenhouse test, pre-emergence treatment; assay type: in vivo, Cenchrus echinatus; conditions: Use Example 3
Source text: as §1, §2, §3, §4, §5, §6, §7, §8, §9, §10

SETLU = test: greenhouse test, pre-emergence treatment; assay type: in vivo, Setaria glauca; conditions: 25 g/ha a.s., Use Example 9
Source text: as §1, §2, §3, §4, §5, §6, §7, §8, §9, §10

SETFA = test: greenhouse test, pre-emergence treatment; assay type: in vivo, Setaria faberi; conditions: Use Example 19
Source text: as §1, §2, §3, §4, §5, §6, §7, §8, §9, §10

SOLNI = test: greenhouse test, pre-emergence treatment; assay type: in vivo, Solanum nigrum L.; conditions: Use Example 19
Source text: as §1, §2, §3, §4, §5, §6, §7, §8, §9, §10

CC(C)c1ccc(NC(=O)N(C)C)cc1 [Isoproturon, reference compound]
Herbicidal action in % after 20 days against PHACA (PHACA; 375 g/ha a.s., Use Example 4): 55%
Herbicidal action in % after 20 days against PHACA (PHACA; 750 g/ha a.s., Use Example 4): 75%
Herbicidal action in % after 20 days against ALOMY (ALOMY [1]; 375 g/ha a.s., Use Example 4): 90%
Herbicidal action in % after 20 days against ALOMY (ALOMY [1]; 750 g/ha a.s., Use Example 4): 98%

CCNc1nc(Cl)nc(NC(C)(C)C)n1 [Terbuthylazine, reference compound]
Herbicidal action in % after 20 days against BRAPL (BRAPL; 250 g/ha a.s., Use Example 5): 15%
Herbicidal action in % after 20 days against DIGSA (DIGSA; 250 g/ha a.s., Use Example 5): 35%

CC(C)N(C(=O)SCC(Cl)=C(Cl)Cl)C(C)C [Triallate, reference compound]
Herbicidal action in % after 20 days against LOLMU (LOLMU [2]; 300 g/ha a.s., Use Example 1): 60%
Herbicidal action in % after 20 days against LOLMU (LOLMU [2]; 600 g/ha a.s., Use Example 1): 80%
Herbicidal action in % after 20 days against PHACA (PHACA; 300 g/ha a.s., Use Example 1): 40%
Herbicidal action in % after 20 days against PHACA (PHACA; 600 g/ha a.s., Use Example 1): 50%

CCCN(CCC)C(=O)SCc1ccccc1 [Prosulfocarb, reference compound]
Herbicidal action in % after 20 days against ECHCG (ECHCG): 40%
Herbicidal action in % after 20 days against MATIN (MATIN): 30%
Herbicidal action in % after 20 days against STEME (STEME): 80%
Herbicidal action in % after 20 days against ALOMY (ALOMY [1]; 1000 g/ha a.s., Use Example 2): 70%

CCC(CC)Nc1c([N+](=O)[O-])cc(C)c(C)c1[N+](=O)[O-] [Pendimethalin, reference compound]
Herbicidal action in % after 20 days against LOLMU (LOLMU [2]; 250 g/ha a.s., Use Example 10): 0%
Herbicidal action in % after 20 days against ALOMY (ALOMY [1]; 250 g/ha a.s., Use Example 10): 30%
Herbicidal action in % after 20 days against ALOMY (ALOMY [3]; 500 g/ha a.s.): 65%
Herbicidal action in % after 20 days against ALOMY (ALOMY [3]; 1000 g/ha a.s.): 75%
Herbicidal action in % after 20 days against LOLMU (LOLMU [4]; 500 g/ha a.s.): 70%
Herbicidal action in % after 20 days against LOLMU (LOLMU [4]; 1000 g/ha a.s.): 75%
Herbicidal action in % after 20 days against SETVI (SETVI; 500 g/ha a.s.): 90%
Herbicidal action in % after 20 days against SETVI (SETVI; 1000 g/ha a.s.): 95%

CCc1cnc(C2=NC(C)(C(C)C)C(=O)N2)c(C(=O)O)c1 (stereo not shown) [Imazethapyr]
Herbicidal action in % after 21 days against PANDI (PANDI; 17.5 g/ha a.s.): 95%
Herbicidal action in % after 21 days against PANDI (PANDI; 35 g/ha a.s.): 95%
Herbicidal action in % after 21 days against CCHEC (CCHEC; 17.5 g/ha a.s.): 50%
Herbicidal action in % after 21 days against CCHEC (CCHEC; 35 g/ha a.s.): 60%

CS(=O)(=O)c1cc(C(F)(F)F)ccc1C(=O)c1cnoc1C1CC1 [Isoxaflutol, Isoxaflutole]
Herbicidal action in % after 20 days against BRAPL (BRAPL; 13 g/ha a.s., Use Example 19): 75%
Herbicidal action in % after 21 days against BRAPL (BRAPL; 25 g/ha a.s., Use Example 9): 90%
Herbicidal action in % after 20 days against BRAPL (BRAPL; 25 g/ha a.s., Use Example 19): 80%
Herbicidal action in % after 20 days against DIGSA (DIGSA; 13 g/ha a.s., Use Example 19): 75%
Herbicidal action in % after 21 days against DIGSA (DIGSA; 25 g/ha a.s., Use Example 9): 98%
Herbicidal action in % after 20 days against DIGSA (DIGSA; 25 g/ha a.s., Use Example 19): 95%
Herbicidal action in % after 21 days against SETLU (SETLU): 75%
Herbicidal action in % after 20 days against SETFA (SETFA; 13 g/ha a.s.): 40%
Herbicidal action in % after 20 days against SETFA (SETFA; 25 g/ha a.s.): 55%
Herbicidal action in % after 20 days against SOLNI (SOLNI; 13 g/ha a.s.): 85%
Herbicidal action in % after 20 days against SOLNI (SOLNI; 25 g/ha a.s.): 98%
